This is an account of results in patent US10766879B2, “Pyrimidine derivatives as kinase inhibitors and their therapeutical applications” (NantBioScience, Inc., priority 2015, dated 2020).

For one test, the target named is T1, c-Src kinase (Homo sapiens, UniProt P12931).
T1 construct: purchased Millipore (KinaseProfiler Service)
The test can be described thus: KinaseProfiler kinase inhibition assay, c-Src. The test is classed as biochemical. The conditions noted are these: 1 μM compound; read-out: % Inhibition @1 μM cSrc.

The target of the next test is T2, FGFR1 kinase (Homo sapiens, UniProt P11362).
T2 construct: purchased Millipore (KinaseProfiler Service)
The test can be described thus: KinaseProfiler kinase inhibition assay, FGFR1. The test is classed as biochemical. The note with it: 1 μM compound.

For a further test, the target named is T3, KDR kinase (Homo sapiens, UniProt P35968).
T3 construct: purchased Millipore (KinaseProfiler Service)
The test can be described thus: KinaseProfiler kinase inhibition assay, KDR. The note with it: 1 μM compound. In kind it is biochemical.

Another test concerns the target T4, Tie2 (Homo sapiens, UniProt Q02763).
T4 construct: purchased Millipore (KinaseProfiler Service)
The test can be described thus: KinaseProfiler kinase inhibition assay, Tie2. The note with it: 1 μM compound. The test is classed as biochemical.

In a further test the test system is AN3_CA. The test can be described thus: CellTiterblue viability, 72 hr, AN3_CA. In kind it is cell-based. The conditions noted are these: Homo sapiens, AN3-CA, AN3_CA cells. The protocol:
(§1) A number of studies were performed to analyze the consequences of tyrosine kinase inhibition in cell lines. To do this, 1000 cells are seeded in 27 μl/well in 384-well microplates, which are then placed in a humidified CO2 incubator at 37° C. overnight. The next day, 3 μl/well of 10× concentrated drug is added and the plates are returned to the incubator for 72 hr. After 72 hr incubation, plates are removed and […] CellTiterblue (Promega) viability reagent is added. Plates are returned to the incubator for 3 hr, after which it is fluorescence measurements are read on the Victor X3 plate reader (Perkin Elmer). Data are analyzed using Excel (Microsoft), and GI50 values are determined using Prism (Graphpad).

The next test addresses T5, Alk kinase (Homo sapiens, UniProt Q9UM73).
T5 construct: purchased Millipore (KinaseProfiler Service)
In words: KinaseProfiler kinase inhibition assay, Alk. The test is classed as biochemical. The conditions noted are these: 1 μM compound.

Another test deals with T6, Ret kinase (Homo sapiens, UniProt P07949).
T6 construct: purchased Millipore (KinaseProfiler Service)
The test can be described thus: KinaseProfiler kinase inhibition assay, Ret. The test is classed as biochemical. The note with it: 1 μM compound.

The target of the next test is T7, Abl kinase (Homo sapiens, UniProt P00519).
T7 construct: purchased Millipore (KinaseProfiler Service)
In words: KinaseProfiler kinase inhibition assay, Abl. In kind it is biochemical. The conditions noted are these: 1 μM compound.

For another test, the system named is Kato III. The test can be described thus: CellTiterblue viability, 72 hr, Kato III. The test is classed as cell-based. The conditions noted are these: Homo sapiens, Kato III cells. The protocol:
as §1
(Alamar Blue is a resazurin reagent that responds to reducing activity.)

The inhibition is the relative decrease from the control value, in per cent. As a reminder, the GI50 is the concentration giving 50% growth inhibition. A low value points to greater sensitivity of the cells.

T1 sequence (P12931 whole entry): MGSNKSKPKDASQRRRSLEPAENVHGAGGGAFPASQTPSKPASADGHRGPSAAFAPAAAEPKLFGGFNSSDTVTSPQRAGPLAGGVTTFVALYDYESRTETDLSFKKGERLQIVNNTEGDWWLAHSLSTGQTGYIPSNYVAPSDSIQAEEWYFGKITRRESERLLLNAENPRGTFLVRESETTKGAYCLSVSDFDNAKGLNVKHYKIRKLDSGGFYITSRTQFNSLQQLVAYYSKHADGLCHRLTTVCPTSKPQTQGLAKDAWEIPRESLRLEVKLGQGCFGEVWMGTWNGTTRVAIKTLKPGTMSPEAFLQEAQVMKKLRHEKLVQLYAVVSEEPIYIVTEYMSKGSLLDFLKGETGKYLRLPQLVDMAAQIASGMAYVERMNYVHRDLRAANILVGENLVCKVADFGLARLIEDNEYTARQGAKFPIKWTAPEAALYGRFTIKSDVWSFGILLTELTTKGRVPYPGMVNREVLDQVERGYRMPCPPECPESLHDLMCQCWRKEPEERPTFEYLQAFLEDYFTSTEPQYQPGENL
T7 sequence (P00519 whole entry): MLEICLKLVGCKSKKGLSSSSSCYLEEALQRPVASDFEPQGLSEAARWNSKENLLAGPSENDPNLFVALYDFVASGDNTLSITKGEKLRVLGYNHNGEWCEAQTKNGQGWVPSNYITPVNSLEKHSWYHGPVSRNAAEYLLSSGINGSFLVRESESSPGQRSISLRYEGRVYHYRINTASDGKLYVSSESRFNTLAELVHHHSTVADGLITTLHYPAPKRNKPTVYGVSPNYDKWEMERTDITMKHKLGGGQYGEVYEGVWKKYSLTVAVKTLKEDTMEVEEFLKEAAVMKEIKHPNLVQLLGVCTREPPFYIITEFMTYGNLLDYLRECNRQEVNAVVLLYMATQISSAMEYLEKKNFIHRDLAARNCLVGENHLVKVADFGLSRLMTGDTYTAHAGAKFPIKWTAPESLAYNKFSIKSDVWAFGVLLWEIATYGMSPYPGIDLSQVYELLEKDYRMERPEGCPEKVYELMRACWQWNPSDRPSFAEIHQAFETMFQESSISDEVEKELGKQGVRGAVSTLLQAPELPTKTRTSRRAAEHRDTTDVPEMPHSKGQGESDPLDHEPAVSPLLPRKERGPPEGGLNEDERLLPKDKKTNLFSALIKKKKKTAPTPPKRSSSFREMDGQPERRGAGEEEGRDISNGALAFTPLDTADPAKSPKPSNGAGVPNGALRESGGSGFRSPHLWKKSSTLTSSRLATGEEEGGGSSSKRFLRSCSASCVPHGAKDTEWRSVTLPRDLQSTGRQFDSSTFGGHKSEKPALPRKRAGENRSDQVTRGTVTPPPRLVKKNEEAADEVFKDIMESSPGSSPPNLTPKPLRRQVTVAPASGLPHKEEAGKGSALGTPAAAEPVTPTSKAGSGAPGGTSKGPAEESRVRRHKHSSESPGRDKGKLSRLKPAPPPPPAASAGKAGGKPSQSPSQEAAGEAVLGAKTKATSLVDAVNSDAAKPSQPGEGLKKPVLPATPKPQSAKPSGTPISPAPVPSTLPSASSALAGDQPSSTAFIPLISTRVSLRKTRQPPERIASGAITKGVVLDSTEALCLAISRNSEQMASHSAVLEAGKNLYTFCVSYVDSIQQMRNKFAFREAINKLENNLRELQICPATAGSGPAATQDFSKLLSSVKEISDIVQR
T5 sequence (Q9UM73 19-1620): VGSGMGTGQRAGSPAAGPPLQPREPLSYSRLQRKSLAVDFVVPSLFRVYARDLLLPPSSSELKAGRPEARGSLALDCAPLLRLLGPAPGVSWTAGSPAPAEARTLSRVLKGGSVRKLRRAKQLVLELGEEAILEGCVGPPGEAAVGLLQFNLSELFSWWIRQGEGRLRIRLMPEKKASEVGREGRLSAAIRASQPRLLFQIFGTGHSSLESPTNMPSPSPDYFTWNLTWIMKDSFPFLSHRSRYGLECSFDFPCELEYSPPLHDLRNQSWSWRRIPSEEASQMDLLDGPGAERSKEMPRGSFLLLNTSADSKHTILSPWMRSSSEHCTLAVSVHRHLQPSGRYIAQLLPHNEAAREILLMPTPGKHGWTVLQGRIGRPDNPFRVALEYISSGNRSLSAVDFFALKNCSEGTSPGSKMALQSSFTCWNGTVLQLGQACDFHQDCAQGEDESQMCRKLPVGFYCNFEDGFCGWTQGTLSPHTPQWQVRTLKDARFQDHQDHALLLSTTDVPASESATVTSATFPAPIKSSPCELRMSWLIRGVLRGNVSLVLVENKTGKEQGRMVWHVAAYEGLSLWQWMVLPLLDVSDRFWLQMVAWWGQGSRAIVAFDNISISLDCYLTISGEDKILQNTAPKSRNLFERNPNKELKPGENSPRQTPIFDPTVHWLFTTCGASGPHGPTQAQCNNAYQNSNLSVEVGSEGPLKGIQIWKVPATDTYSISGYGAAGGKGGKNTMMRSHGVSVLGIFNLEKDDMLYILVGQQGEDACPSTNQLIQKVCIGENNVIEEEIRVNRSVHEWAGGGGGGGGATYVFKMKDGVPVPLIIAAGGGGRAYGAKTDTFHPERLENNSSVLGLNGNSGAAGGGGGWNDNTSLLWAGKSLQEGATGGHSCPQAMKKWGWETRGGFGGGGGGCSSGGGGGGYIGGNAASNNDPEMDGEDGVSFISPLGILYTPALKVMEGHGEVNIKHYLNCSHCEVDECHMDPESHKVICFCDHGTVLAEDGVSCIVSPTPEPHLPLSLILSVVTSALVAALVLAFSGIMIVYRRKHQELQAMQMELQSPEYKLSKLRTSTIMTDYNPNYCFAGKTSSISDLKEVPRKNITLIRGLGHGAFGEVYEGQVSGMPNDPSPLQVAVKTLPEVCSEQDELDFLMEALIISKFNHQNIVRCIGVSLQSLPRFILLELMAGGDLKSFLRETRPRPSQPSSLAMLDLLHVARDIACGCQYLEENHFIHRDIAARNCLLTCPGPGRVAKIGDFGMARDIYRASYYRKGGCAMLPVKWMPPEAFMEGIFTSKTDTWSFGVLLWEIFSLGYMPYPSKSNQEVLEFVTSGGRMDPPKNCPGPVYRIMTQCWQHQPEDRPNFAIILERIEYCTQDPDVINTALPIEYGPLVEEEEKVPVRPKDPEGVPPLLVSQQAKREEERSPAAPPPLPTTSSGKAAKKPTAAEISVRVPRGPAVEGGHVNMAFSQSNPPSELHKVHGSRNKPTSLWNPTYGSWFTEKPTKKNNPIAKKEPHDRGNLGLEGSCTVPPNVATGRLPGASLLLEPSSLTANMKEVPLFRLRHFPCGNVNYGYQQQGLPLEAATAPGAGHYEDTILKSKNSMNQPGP
T3 sequence (P35968 20-1356): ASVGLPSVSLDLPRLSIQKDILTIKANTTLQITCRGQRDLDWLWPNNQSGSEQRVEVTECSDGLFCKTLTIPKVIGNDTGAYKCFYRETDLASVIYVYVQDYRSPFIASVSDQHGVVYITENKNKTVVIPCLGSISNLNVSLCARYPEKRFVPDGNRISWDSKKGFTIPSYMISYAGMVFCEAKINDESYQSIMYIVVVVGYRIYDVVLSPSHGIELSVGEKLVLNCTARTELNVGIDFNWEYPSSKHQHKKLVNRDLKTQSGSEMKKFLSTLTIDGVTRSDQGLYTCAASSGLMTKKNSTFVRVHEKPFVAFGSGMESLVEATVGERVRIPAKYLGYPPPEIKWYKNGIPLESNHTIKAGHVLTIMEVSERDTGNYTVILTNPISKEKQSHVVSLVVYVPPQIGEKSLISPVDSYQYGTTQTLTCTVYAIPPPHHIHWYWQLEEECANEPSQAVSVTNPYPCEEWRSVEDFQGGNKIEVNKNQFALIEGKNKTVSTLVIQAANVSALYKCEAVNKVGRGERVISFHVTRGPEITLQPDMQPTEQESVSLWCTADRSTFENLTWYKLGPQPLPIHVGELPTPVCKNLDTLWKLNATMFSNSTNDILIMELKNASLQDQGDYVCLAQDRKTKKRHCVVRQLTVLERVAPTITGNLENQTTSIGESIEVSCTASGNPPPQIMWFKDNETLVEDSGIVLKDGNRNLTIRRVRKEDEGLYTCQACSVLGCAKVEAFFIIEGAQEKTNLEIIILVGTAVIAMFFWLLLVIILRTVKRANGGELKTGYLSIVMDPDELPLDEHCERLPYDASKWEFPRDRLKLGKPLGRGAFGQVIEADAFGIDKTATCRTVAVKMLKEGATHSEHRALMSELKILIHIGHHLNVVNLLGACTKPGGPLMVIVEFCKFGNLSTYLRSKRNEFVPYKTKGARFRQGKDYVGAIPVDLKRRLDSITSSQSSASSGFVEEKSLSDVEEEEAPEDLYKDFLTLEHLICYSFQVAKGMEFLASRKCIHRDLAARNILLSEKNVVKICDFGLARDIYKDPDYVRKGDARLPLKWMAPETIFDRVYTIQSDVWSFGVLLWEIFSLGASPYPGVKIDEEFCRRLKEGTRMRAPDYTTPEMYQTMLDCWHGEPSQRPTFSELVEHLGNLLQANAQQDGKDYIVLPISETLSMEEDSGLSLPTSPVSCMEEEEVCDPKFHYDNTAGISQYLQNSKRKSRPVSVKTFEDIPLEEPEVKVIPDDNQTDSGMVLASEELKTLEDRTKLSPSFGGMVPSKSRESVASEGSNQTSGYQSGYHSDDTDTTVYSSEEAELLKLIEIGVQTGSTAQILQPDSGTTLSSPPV

Take `CC(=O)N1CCN(c2ccc(Nc3cc(Oc4cc(F)c5[nH]c(C)cc5c4F)ncn3)cc2)CC1` [Compound 50]: the inhibition at 1 µM on c-Src kinase worked out at 58%; against FGFR1 kinase, 89%; at KDR kinase, 97%; against Tie2, 48%; against Alk kinase, 63%; on Ret kinase, 36%. Besides, at Abl kinase, the inhibition at 1 µM worked out at 36%. Also, the 50% growth inhibitory concentration (GI50) is over 500 nM in the test on AN3_CA and 348 nM with Kato III.
For the compound `Cc1cc2c(F)c(Oc3ncnc(Nc4ccc(N5CCN(C)CC5)cn4)c3F)ccc2[nH]1` [Example 27], the inhibition at 1 µM on c-Src kinase was 11%; at FGFR1 kinase it was 85%; at KDR kinase, 79%; against Tie2 it was -2%; against Alk kinase, 35%; against Ret kinase, -46%. On Abl kinase, the inhibition at 1 µM is 4%. The GI50 with AN3_CA and in the test on Kato III was over 500 nM in each case.
Regarding `CC(=O)Nc1ccc(Nc2cc(Oc3ccc4[nH]c(C)cc4c3F)ncn2)cc1` [Example 7], the inhibition at 1 µM at c-Src kinase is 14%; at FGFR1 kinase, 96%; at KDR kinase, 98%; against Tie2, 4%; on Alk kinase it was 61%; on Ret kinase, -16%. Moreover, the inhibition at 1 µM against Abl kinase was found to be 8%. Further, the GI50 in the test with AN3_CA and in the test on Kato III was over 500 nM each time.
With `Cc1cc2c(F)c(Oc3cc(Nc4cccc(N5CCOCC5)c4)ncn3)ccc2[nH]1` [Example 8], the inhibition at 1 µM on c-Src kinase came to 15%; on FGFR1 kinase it was 97%; against KDR kinase, 98%; at Tie2, 2%; on Alk kinase it was 60%; on Ret kinase it was 22%. Moreover, on Abl kinase, the inhibition at 1 µM worked out at 11%. In addition, the GI50 in the test with AN3_CA and with Kato III was over 500 nM throughout.
For `Cc1cc2c(F)c(Oc3cc(Nc4ccccn4)ncn3)ccc2[nH]1` [Example 18], the inhibition at 1 µM was found to be 21% on c-Src kinase; 87% on FGFR1 kinase; 92% against KDR kinase; 48% on Tie2; 15% against Alk kinase; 68% at Ret kinase. Moreover, the inhibition at 1 µM against Abl kinase was determined as 45%. Besides, the concentration for 50% growth inhibition (GI50) in the test on AN3_CA is over 500 nM.
For the compound `CCOC(=O)c1cc(Nc2cc(Oc3ccc4[nH]c(C)cc4c3F)ncn2)n[nH]1` [Example 19], the inhibition at 1 µM is 8% on c-Src kinase; 59% against FGFR1 kinase; 89% against KDR kinase; 13% on Tie2; -5% at Alk kinase; 48% against Ret kinase. In addition, the inhibition at 1 µM on Abl kinase stood at 18%. This compound gave a GI50 with AN3_CA of over 500 nM.
Turning to `Cc1cc2c(F)c(Oc3ncnc(Nc4ccc(N5CCN(C)CC5)cc4)c3F)ccc2[nH]1` [Example 24], the inhibition at 1 µM at c-Src kinase is 11%; against FGFR1 kinase, 97%; against KDR kinase, 96%; against Tie2, -6%; on Alk kinase, 38%; against Ret kinase it was -12%. On Abl kinase, the inhibition at 1 µM is 0%. For the same compound, the GI50 was over 500 nM in the test with AN3_CA and 386 nM in the test on Kato III.
For the compound `Cc1cc2c(F)c(Oc3cc(Nc4cc(-c5ccccc5)[nH]n4)ncn3)ccc2[nH]1` [Example 4], the inhibition at 1 µM at c-Src kinase is 36%; against FGFR1 kinase, 59%; on KDR kinase it was 98%; on Tie2, 30%; against Alk kinase, 53%; against Ret kinase, 27%. The inhibition at 1 µM against Abl kinase was 23%. This compound displayed a GI50 in the test on AN3_CA of over 500 nM.
